Measurements reported in patent publication US20230295285A1, “METHODS OF REVERSING CACHEXIA AND PROLONGING SURVIVAL COMPRISING ADMINISTERING A GDF15 MODULATOR AND AN ANTI-CANCER AGENT” (AVEO Pharmaceuticals, Inc., priority 2014, published 2023).
Where two headings read alike, the source gives them in different places.

Tests used:
Type in all cases: in vivo
GDF15 [1] = biological target: T1, GDF15 (Mus musculus, UniProt Q9Z0J7); details: ICR-Scid mice
T1 construct: Naive non-tumor-bearing, 8-week old, female, ICR-Scid mice; from tissue; host or cells: whole animal: ICR-Scid mice (endogenous circulating GDF15)
T1 sequence (Q9Z0J7 189-303): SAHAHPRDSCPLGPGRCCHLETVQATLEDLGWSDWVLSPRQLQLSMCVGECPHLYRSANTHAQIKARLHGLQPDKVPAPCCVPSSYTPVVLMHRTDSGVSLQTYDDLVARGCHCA
Protocol: Naive non-tumor-bearing, 8-week old, female, ICR-Scid mice were treated with carboplatin (60 mpk) by intra-peritoneal injection on Day 0 and Day 3 of this experiment. On Day 2, after mice experience 8% body weight loss, mice were randomized into two groups of ten mice each. One group received carboplatin (60 mpk) plus (1) vehicle or carboplatin (60 mpk) plus (2) rabbit monoclonal antibody raised against murine anti-GDF15 antibody, R-23 (20 mpk) by intra-peritoneal injection on Day 2 and Day 4. In the absence of GDF15 inhibition, 80% of the mice died due to cachexia caused by the carboplatin agent over a period of 8 days.

GDF15 [2] = biological target: T1, GDF15; details: non-tumor-bearing ICR-Scid mice; cisplatin 3 mpk i.p. twice a week + vehicle; over 9 days
Protocol: Naive non-tumor-bearing, 8-week old, female, ICR-Scid mice were treated with cisplatin (3 mpk) twice a week by intra-peritoneal injection. Body weight was measured daily. After 2 doses of cisplatin (day 0 of the experiment) mice were randomized into two groups of ten mice each. One group received cisplatin 3 mpk plus (1) vehicle; or cisplatin 3 mpk with (2) rabbit monoclonal antibody raised against murine anti-GDF15 antibody, R-23 twice a week (20 mpk) by intra-peritoneal injection. In the absence of GDF15 inhibition, 80% of the mice die due to cachexia caused by the cisplatin agent over a period of 9 days.

GDF15 [3] = biological target: T1, GDF15; details: ICR-Scid mice; remark: listed apart in the source
Protocol: Naive non-tumor-bearing, 8-week old, female, ICR-Scid mice were treated daily with oxaliplatin (3 mpk) by intra-peritoneal injection. On Day 3, after mice experience 8% body weight loss, mice were randomized into two groups of ten mice each. One group received oxaliplatin (3 mpk) plus (1) vehicle; or oxaliplatin (3 mpk) plus (2) rabbit monoclonal antibody raised against murine anti-GDF15 antibody, R-23 (20 mpk). Antibody or vehicle was dosed on Day 3, 5, 7, 9 by intra-peritoneal injection. In the absence of GDF15 inhibition, 45% of the mice die due to cachexia caused by the oxaliplatin agent over a period of 10 days.

GDF15 [4] = experiment: Survival and cachexia in mice bearing LNCaP prostate xenograft, anti-GDF15 antibody plus tivozanib; details: LNCaP xenograft NCR Nude mice
Protocol: LNCaP cells were grown in culture at 37° C. in an atmosphere containing 5% CO2, using RPMI-1640 Medium (ATCC® 30-2001™) containing 10% FBS. Cells were inoculated subcutaneously into the flank of 8-week old female NCR Nude mice with 5×10^6 cells per mouse in 50% matrigel. When tumor size reached 500 mm^3, the mice were randomized into three groups of ten mice each. Each group received one of the following treatments: (1) murine immunoglobulin G (20 mpk) and vehicle (Control); (2) murine anti-GDF15 antibody 14F11 (20 mpk) and tivozanib (5 mpk); or (3) murine immunoglobulin G (20 mpk) and tivozanib (5 mpk). Antibodies were administered every 3 days by intra-peritoneal injection, tivozanib and vehicle control was administered daily by oral gavage. Body weight and tumor size were measured daily. Mice were evaluated daily and if any of the following criteria were achieved, animals were sacrificed: a) tumor size larger than 2,000 mm^3; b) body weight loss greater than 20%; c) moribund.
In the absence of GDF15 inhibition, 70% of the mice die due to cachexia over a period of 30 days, even in the presence of anti-cancer treatment.

## N.N.O=C([O-])C1(C(=O)[O-])CCC1.[Pt+2] [carboplatin]
GDF15 [1]; carboplatin 60 mpk i.p. Day 0 and Day 3 + vehicle, over 8 days
  mice died due to cachexia caused by carboplatin: 80%
GDF15 [1]; carboplatin 60 mpk i.p., on Day 2, before randomization
  body weight loss: 8%

## N.N.[Cl][Pt][Cl] [cisplatin]
GDF15 [2]
  mice die due to cachexia caused by cisplatin: 80%

## O=C1[O][Pt]2([NH][C@@H]3CCCC[C@H]3[NH]2)[O]C1=O [oxaliplatin]
GDF15 [3]; oxaliplatin 3 mpk i.p. daily + vehicle, over 10 days
  mice die due to cachexia caused by oxaliplatin: 45%
GDF15 [3]; oxaliplatin 3 mpk i.p. daily, on Day 3, before randomization
  body weight loss: 8%

## COc1cc2nccc(Oc3ccc(NC(=O)Nc4cc(C)on4)c(Cl)c3)c2cc1OC [tivozanib]
GDF15 [4]; tivozanib 5 mpk daily oral
  effect on tumor growth: slows down tumor growth
GDF15 [4]; tivozanib 5 mpk daily oral gavage + murine IgG 20 mpk, absence of GDF15 inhibition, over 30 days
  mice die due to cachexia: 70%

B1: 14F11: murine anti-GDF15 antibody; light chain SEQ ID NO: 34, heavy chain SEQ ID NO: 53 (antibody)
heavy: QVTLKESGPGILQPSQTLSLTCSFSGFSLSTYGMGVGWIRQPSGKGLEWLADIWWDDDKYYNPSLKSRLTISKDTSSNEVFLKIAIVDTADTATYYCARRGHYSAMDYWGQGTSVTVSSAKTTPPSVYPLAPGSAAQTNSMVTLGCLVKGYFPEPVTVTWNSGSLSSGVHTFPAVLQSDLYTLSSSVTVPSSTWPSETVTCNVAHPASSTKVDKKIVPRDCGCKPCICTVPEVSSVFIFPPKPKDVLTITLTPKVTCVVVDISKDDPEVQFSWFVDDVEVHTAQTQPREEQFNSTFRSVSELPIMHQDWLNGKEFKCRVNSAAFPAPIEKTISKTKGRPKAPQVYTIPPPKEQMAKDKVSLTCMITDFFPEDITVEWQWNGQPAENYKNTQPIMDTDGSYFVYSKLNVQKSNWEAGNTFTCSVLHEGLHNHHTEKSLSHSPGK
light: DIVMTQSQKFMSTSVGDRVSVTCKASQNVGTNVAWYQQKPGQSPKALIYSPSYRYSGVPDRFTGSGSGTDFTLTISNVQSEDLAEYFCQQYNSYPHTFGGGTKLEMKRADAAPTVSIFPPSSEQLTSGGASVVCFLNNFYPKDINVKWKIDGSERQNGVLNSWTDQDSKDSTYSMSSTLTLTKDEYERHNSYTCEATHKTSTSPIVKSFNRNEC
GDF15 [4]; 14F11 20 mpk + tivozanib 5 mpk, 30 day period
  anti-tumor effect: effective anti-tumor treatment
GDF15 [4]; 14F11 20 mpk + tivozanib 5 mpk, 30 days
  effect on cachexia: reverses cachexia
GDF15 [4]; 14F11 20 mpk i.p. every 3 days + tivozanib 5 mpk daily oral, over 30 day period, FIG. 1
  sustained survival: 100%
